Legend:
H3K9me3 oligonucleosomes = assay: Scanning force microscopy; type: biochemical, Xenopus laevis; settings: 50 mM NaCl
Protocol: Nucleosomal arrays and recombinant hHP1β were dialyzed against SFM buffer (5 mM triethanolamine (pH7.5), 50 mM NaCl, 0.1 mM EDTA). The recombinant proteins at different concentrations (between 0 and 5 μM) were preincubated with oligonucleosomes at a DNA concentration of 50 ng ml^−1 in SFM buffer for 1 h at 4°C, and the samples were fixed with 0.05% (v/v) fresh glutaraldehyde (Electron Microscopy Sciences, PA, USA) at 4°C overnight. Fixed samples were extensively dialyzed against TEAE buffer (5 mM triethanolamine (pH 7.5), 0.1 mM EDTA). 10 μl of dialyzed sample was deposited on ca. 1 cm^2 of freshly cleaved mica (Plano). After 5 min incubation at RT, the mica was washed with 200 μl of water (high-performance liquid chromatography grade) and air-dried. Images were recorded in air on a Nanoscope V Multi Mode scanning force microscope (Veeco, NY, USA) using an ‘E'-scanner with maximum scan size of 15 × 15 μm and silicon-etched probe tips with a typical spring constant of 40 N m^−1 and a typical resonance frequency of 325 kHz (NSC15, MikroMasch) in tapping mode. […]

[1] = tested on: chromatin reporter array in U2OS cells; assay: Chromatin reporter array (LacO) unfolding; type: cell-based; settings: doxycycline 1 μg ml^−1 24 h, LacI-tethered, n>300
Source text: Figure 7 hHP1β dimerization is required for maintaining condensed cellular chromatin states. (a) Schematic diagram of the transgene system used to test chromatin compaction effects of hHP1β. A tandem array of the construct has been integrated into the genome of U2OS mammalian cells. Dox, doxycycline; rtTA, reverse tetracycline-controlled TET-VP16 transactivator, whose binding to tetracycline responsive elements (RE) is activated by doxycycline. (b) Together with mCherry-LacI, the indicated fusion proteins were transiently expressed in U2OS cells containing the chromatin reporter array as described in a. Representative confocal images in the absence or after induction of transcription from the array with doxycycline (Dox) are shown. DNA was stained with DAPI. Inlets show enlarged chromatin reporter array; scale bar, 10 μm. (c) Quantification of the results shown in b together with results of similar experiments using additional hHP1β mutant proteins. Averages of three independent experiments are plotted; error bars represent s.d.; n>300 for each condition; asterisks represent P<0.05 according to Student's t-test.
U2OS 2-6-3 CLTon cells[38] were kindly provided by Dr Supriya Prasanth (University of Illinois, IL, USA) and maintained in DMEM (high glucose+GlutaMax) (GIBCO/Invitrogen, Darmstadt, Germany) supplemented with 10% (v/v) TET system approved fetal bovine serum (Clontech, Saint-Germain-en-Laye, France), 50 μg ml^−1 hygromycin (Carl Roth, Karlsruhe, Germany) and 200 μg ml^−1 G418 (Clontech, Saint-Germain-en-Laye, France). For fluorescence microscopy, cells were grown on coverslips in a six-well plate without antibiotics. 500 ng plasmid DNA was transfected using Lipofectamine LTX and Plus reagent (Invitrogen, Darmstadt, Germany). 20 h post transfection, cells were treated with 1 μg ml^−1 doxycycline for 24 h for induction of rtTA expression. Cells were washed twice with PBS and fixed with 3.7% (v/v) formaldehyde/PBS for 10 min at RT. […] P values (according to Student's t-test) were calculated using GraphPad QuickCals (GraphPad, CA, USA).

| Substance | structures observed by SFM (H3K9me3 oligonucleosomes; 0.5 μM protein) | structures observed by SFM (H3K9me3 oligonucleosomes; 5 μM protein) | frequency of condensed chromatin fibres and large clusters, H3K9me0 (H3K9me3 oligonucleosomes; H3K9me0 chromatin, n>50) | unfolding of the array on activation [1] | frequency of condensed chromatin fibres and large clusters (H3K9me3 oligonucleosomes; H3K9me3 chromatin, n>50) |
| --- | --- | --- | --- | --- | --- |
| hHP1β WT: recombinant human heterochromatin protein 1β (GenBank NM_001127228), 185 aa | individual but highly condensed H3K9me3 chromatin species | larger clusters that must contain multiple oligonucleosomes were visible | much lower for H3K9me0 chromatin with hHP1β WT | largely reduced |  |
| hHP1β I161A: CSD point mutant of hHP1β incapable of dimerization |  |  |  | largely reduced by tethering of LacI-YFP-hHP1β WT but not the dimerization deficient I161A mutant | much lower |

Source: publication PMC4838890, “Dynamic and flexible H3K9me3 bridging via HP1β dimerization establishes a plastic state of condensed chromatin” (Nature Communications, 2016)
